Here are results for 1 molecule from patent US9212196B2, “Hypophosphorous acid derivatives having antihyperalgic activity and biological applications thereof” (UNIVERSITE PARIS DESCARTES, priority 2011, dated 2015).

Structures are written as SMILES.

Experiment [1] has as its system carrageenan inflammatory pain model. In words: Paw pressure test in carrageenan inflammatory pain model in rats. The experiment is classed as in vivo, rat. As for the experimental part:
After the induction period of the neuropathy or inflammation, various amounts of derivative 2 dissolved in serum have been injected in rats, (from 0.5 to 15 μg/rat, i.t. from 1 to 30 mg/kg, i.p.) on time-course of vocalization threshold to paw pressure. The results obtained on healthy animals are given on FIG. 1. They are expressed by the time course curves of means+/−SEM of vocalization threshold in grams (n=6-8 rats per group) (A) or by the area under the curve (B). Morphine (10 μg/rat, i.t.) is used as a positive control. […] FIG. 2 illustrates the effect of intrathecal administration of derivative 2 on the vocalization threshold to paw pressure in the carrageenan inflammatory pain model (effect of derivative 2 (0.5, 1, 5, 10 μg/rat, i.t.) on time-course of vocalization threshold to paw pressure). Morphine (10 μg/rat, i.t.) is used as a positive control. […] Nociceptive thresholds, expressed in grams (g), were measured with a Ugo Basile analgesimeter (Apelex, tip diameter of the probe: 1 mm, weight: 30 g) by applying an increasing pressure to the right hind paw of rats until a squeak (vocalization threshold) was obtained (cut-off was 750 g except carrageenan treated animals for which the cut-off was 500 g). The treatments were done after the measurement of two consecutive stable vocalization threshold values and their effects were assessed 15, 30, 45, 60, 90, and 120 min after. […]

A further experiment has as its target mGlu6 (Homo sapiens (Human), UniProt O15303). Description: Agonist activity on mGlu6 in transfected HEK293 cells, intracellular calcium release (Fluo4-AM). It is filed as cell-based. Conditions: transfected cells, calcium release; read-out: mGlu6 EC50 μM (n). An excerpt:
The EC50's are compared to those of L-AP4 (L-2-amino-4-phosphonobutyric acid) used as a reference.
Metabotropic glutamate receptors were transiently transfected in HEK293 cells by electroporation as described elsewhere (Brabet I. et al., 1998) and plated in 96-well microplates. The high affinity glutamate transporter EAAC1 was co-transfected with the receptor in order to avoid any influence of glutamate released by the cells in the assay medium. In the experiments carried out by the inventors, Group-III mGluRs were co-transfected with a chimeric G-protein which couples the activation of the receptor to the phospholipase-C (PLC) pathway. Thus receptor activation induces production of inositol phosphate (IP) which in turn induces intracellular Ca^2+ release. Receptor activity was then determined by measurement of the IP production or Ca release as already described (Goudet C. et al., PNAS 2004). For intracellular calcium measurements, cells expressing mGluRs were loaded with Ca2+-sensitive fluorescent dye Fluo-4 AM (Invitrogen, Cergy-Pontoise, France) dissolved in Hanks' balanced salt solution (HBSS, Invitrogen, Cergy-Pontoise, France) containing 2.5 mM Probenicid (Sigma-Aldrich Chemie, Saint-Quentin Fallavier, France) for 1 h at 37° C., then washed and incubated with HBSS containing probenecid. A drug plate was prepared with the various concentrations of agonist to be tested and drug solution was added in each well after 20 s of recording. Fluorescence signals (excitation 485 nm, emission 525 nm) were measured by using the fluorescence microplate reader Flexstation III (Molecular Devices, Saint-Grégoire, France) at sampling intervals of 1.5 s for 60 s. All points are realized in triplicate.
The dose-response curves were fitted using the GraphPad Prism program and the following equation: y=[(ymax−ymin)/(1+(x/EC50)n)]+ymin where EC50 is the concentration of the compound necessary to obtain the half maximal effect and n is the Hill coefficient.

The next experiment deals with healthy rats. Description: Paw pressure test in healthy rats. The experiment is classed as in vivo, rat. As to conditions: i.t., FIG. 1. As for the experimental part:
After the induction period of the neuropathy or inflammation, various amounts of derivative 2 dissolved in serum have been injected in rats, (from 0.5 to 15 μg/rat, i.t. from 1 to 30 mg/kg, i.p.) on time-course of vocalization threshold to paw pressure. The results obtained on healthy animals are given on FIG. 1. They are expressed by the time course curves of means+/−SEM of vocalization threshold in grams (n=6-8 rats per group) (A) or by the area under the curve (B). Morphine (10 μg/rat, i.t.) is used as a positive control.
The animals were submitted to the paw pressure test previously described by Randall and Selitto (1957). Nociceptive thresholds, expressed in grams (g), were measured with a Ugo Basile analgesimeter (Apelex, tip diameter of the probe: 1 mm, weight: 30 g) by applying an increasing pressure to the right hind paw of rats until a squeak (vocalization threshold) was obtained (cut-off was 750 g except carrageenan treated animals for which the cut-off was 500 g). The treatments were done after the measurement of two consecutive stable vocalization threshold values and their effects were assessed 15, 30, 45, 60, 90, and 120 min after.
Intrathecal injections were performed, under isoflurane anesthesia (4% induction, 2% maintenance), as previously described (Mestre et al., 1994). […]

Chain of mGlu6 (O15303 25-877): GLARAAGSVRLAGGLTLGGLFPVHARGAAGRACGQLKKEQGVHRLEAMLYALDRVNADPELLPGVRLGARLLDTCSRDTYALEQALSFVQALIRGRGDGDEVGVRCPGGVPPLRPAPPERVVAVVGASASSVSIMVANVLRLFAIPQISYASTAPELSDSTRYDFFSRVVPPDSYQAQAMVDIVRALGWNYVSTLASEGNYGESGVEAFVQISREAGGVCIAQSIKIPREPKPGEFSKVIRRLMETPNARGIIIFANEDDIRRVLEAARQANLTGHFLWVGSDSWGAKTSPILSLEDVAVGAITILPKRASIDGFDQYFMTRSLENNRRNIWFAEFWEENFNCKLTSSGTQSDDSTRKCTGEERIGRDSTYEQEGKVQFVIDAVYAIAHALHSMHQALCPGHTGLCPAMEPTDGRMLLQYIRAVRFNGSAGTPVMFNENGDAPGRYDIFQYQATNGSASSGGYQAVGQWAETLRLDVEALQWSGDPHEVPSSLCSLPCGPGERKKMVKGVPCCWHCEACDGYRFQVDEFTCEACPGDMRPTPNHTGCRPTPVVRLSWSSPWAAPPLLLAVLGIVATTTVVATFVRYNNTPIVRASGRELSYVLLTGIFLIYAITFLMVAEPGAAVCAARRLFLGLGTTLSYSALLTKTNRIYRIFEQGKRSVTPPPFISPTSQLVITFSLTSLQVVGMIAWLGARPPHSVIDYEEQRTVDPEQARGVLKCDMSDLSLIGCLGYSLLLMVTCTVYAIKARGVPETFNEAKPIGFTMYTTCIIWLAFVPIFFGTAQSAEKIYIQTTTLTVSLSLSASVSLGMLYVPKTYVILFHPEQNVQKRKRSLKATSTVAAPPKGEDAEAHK

In general, EC50 refers to the concentration giving half of the maximal effect. With `N[C@@H](CCP(=O)(O)C(O)c1ccc(OCC(=O)O)cc1)C(=O)O` (stereo partly drawn) [Derivative 2, [((3S)-3-Amino-3-carboxy)propyl][(4-(carboxymethoxy)phenyl)hydroxymethyl]phosphinic Acid], the “antihyperalgesic effect on vocalization threshold to paw pressure” value in experiment [1] (carrageenan inflammatory pain, rats, 0.5-10 μg/rat i.t., FIG. 2) was “abolishes the excess of mechanical pain”. For the same molecule, the “antihyperalgesic effect compared to morphine” value in experiment [1] (inflammatory pain, morphine 10 μg/rat i.t. as control) is “close to the one of morphine”. On mGlu6, the EC50 came out at 4.2 ± 0.6 µM. Further, the “perception of mechanical acute pain (vocalization threshold to paw pressure)” value with healthy rats is reported as “does not modify the perception of the mechanical acute pain”.
